Assay [1] concerns NA transporter. The assay is described as follows: Inhibition of noradrenaline uptake in rat brain synaptosomes. Format: biochemical. To be noted: Table III.
Assay [2] addresses T1, 5-HT transporter (Rattus norvegicus, UniProt P31652).
T1 construct: synaptosomes of rat brain areas are freshly isolated; from tissue; host or cells: rat brain synaptosomes (P2 fraction) from marrow and pons
The assay is described as follows: Inhibition of 5-HT uptake in rat brain synaptosomes. Format: biochemical. To be noted: read-out: Uptake 5-HT, % inhibition; Table III; rat, 1 μM.

Assay [3] relates to batrachotoxin (BTX) binding site of the sodium channel. Briefly: Affinity to the batrachotoxin (BTX) binding site of the sodium channel. The settings on record: Table III; rat cerebrocortex synaptosomes; test concentration not given.

We go through 23 molecules from patent publication US7951815B2, “Substituted 1,4,8-triazaspiro [4,5]decan-2-one compounds” (Gruenenthal GmbH, priority 2004, dated 2011).

T1 sequence (P31652 whole entry): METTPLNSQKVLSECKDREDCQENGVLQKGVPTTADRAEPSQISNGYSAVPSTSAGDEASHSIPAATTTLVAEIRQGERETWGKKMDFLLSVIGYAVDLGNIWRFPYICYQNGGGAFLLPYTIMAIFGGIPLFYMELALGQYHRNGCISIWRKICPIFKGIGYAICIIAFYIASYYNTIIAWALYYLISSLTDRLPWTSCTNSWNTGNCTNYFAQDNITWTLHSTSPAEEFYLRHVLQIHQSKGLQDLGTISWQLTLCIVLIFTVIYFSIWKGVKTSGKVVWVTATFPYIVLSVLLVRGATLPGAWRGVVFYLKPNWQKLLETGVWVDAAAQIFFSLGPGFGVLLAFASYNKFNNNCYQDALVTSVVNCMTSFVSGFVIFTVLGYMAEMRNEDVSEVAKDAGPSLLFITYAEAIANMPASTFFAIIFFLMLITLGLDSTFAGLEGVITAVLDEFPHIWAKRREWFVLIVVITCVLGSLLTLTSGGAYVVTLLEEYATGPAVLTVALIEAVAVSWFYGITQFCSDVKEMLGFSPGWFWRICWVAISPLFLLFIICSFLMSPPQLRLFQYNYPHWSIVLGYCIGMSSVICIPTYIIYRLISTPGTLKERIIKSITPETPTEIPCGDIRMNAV

Regarding `CC(C)CC1NC2(CCN(C(=O)COCc3ccccc3)CC2)NC1=O` (stereo not drawn) [Example 80, 8-(2-Benzyloxyacetyl)-3-isobutyl-1,4,8-triazaspiro[4,5]decan-2-one], in assay [1], the “Uptake (NA), rat, 10 μM, % inhibition” value was 30%. Turning to `CC(C)CC1NC2(CCN(C(=O)c3sccc3Cl)CC2)NC1=O` (stereo not drawn) [Example 94, 8-(3-Chlorothiophene-2-carbonyl)-3-isobutyl-1,4,8-triazaspiro[4,5]decan-2-one], the “Uptake (NA), rat, 10 μM, % inhibition” value in assay [1] is 38%. The same measure, in the same setting: with `CC(C)C1NC2(CCN(C(=O)c3c(F)c(F)c(F)c(F)c3F)CC2)NC1=O` (stereo not drawn) [Example 95, 3-Isopropyl-8-pentafluorobenzoyl-1,4,8-triazaspiro[4,5]decan-2-one] the figure was 31%; with `Cc1cccc(C(=O)N2CCC3(CC2)NC(=O)C(Cc2ccccc2)N3)c1C` (stereo not drawn) [Example 108, 3-Benzyl-8-(2,3-dimethylbenzoyl)-1,4,8-triazaspiro[4,5]decan-2-one], 37%.

In the case of `O=C(c1ccc(-c2ccccc2)cc1)N1CCC2(CC1)NCC(=O)N2Cc1ccccc1F` [Example 262, 8-(Biphenyl-4-carbonyl)-1-(2-fluorobenzyl)-1,4,8-triazaspiro[4,5]decan-2-one], in assay [2], the inhibition at 1 µM stood at 60%. This molecule gave a BTX inhibition in assay [3] of 70.

As for `CC(C)CC1NC2(CCN(C(=O)c3ccc4nonc4c3)CC2)N(Cc2c(Cl)cccc2Cl)C1=O` (stereo not drawn) [Example 275, 8-(Benzo[1,2,5]oxadiazole-5-carbonyl)-1-(2,6-dichlorobenzyl)-3-isobutyl-1,4,8-triazaspiro[4,5]decan-2-one], in assay [2], the inhibition at 1 µM came out at 33%. In assay [3], this molecule gave a BTX inhibition of 61.

With `CC(C)CC1NC2(CCN(C(=O)c3ccc(Cl)nc3)CC2)N(Cc2c(Cl)cccc2Cl)C1=O` (stereo not drawn) [Example 279, 8-(6-Chloropyridin-3-carbonyl)-1-(2,6-dichlorobenzyl)-3-isobutyl-1,4,8-triazaspiro[4,5]decan-2-one], the inhibition at 1 µM in assay [2] came to 48%. The molecule further registered a BTX inhibition in assay [3] of 60. Take `COc1ccc(C(=O)N2CCC3(CC2)NCC(=O)N3Cc2ccccc2F)cc1` [Example 285, 1-(2-Fluorobenzyl)-8-(4-methoxybenzoyl)-1,4,8-triazaspiro[4,5]decan-2-one]: the inhibition at 1 µM in assay [2] worked out at 65%. In assay [3], the BTX inhibition is reported as 32. `CCOC(=O)CN1C(=O)C(CC(C)C)NC12CCN(C(=O)CC(C)C)CC2` (stereo not drawn) [Example 288, Ethyl [3-isobutyl-8-(3-methylbutyryl)-2-oxo-1,4,8-triazaspiro[4,5]dec-1-yl]acetate]: in assay [2], the inhibition at 1 µM is 45%. The molecule further displayed a BTX inhibition in assay [3] of 32.

Regarding `CCCC(C)C(=O)N1CCC2(CC1)NC(CC(C)C)C(=O)N2CC(=O)OCC` (stereo not drawn) [Example 291, Ethyl [3-isobutyl-8-(2-methylpentanoyl)-2-oxo-1,4,8-triazaspiro[4,5]dec-1-yl]acetate], in assay [2], the inhibition at 1 µM turned out to be 38%. In assay [3], this molecule registered a BTX inhibition of 33.

`COC(=O)c1ccc(CN2C(=O)CNC23CCN(C(=O)c2cc(C(C)(C)C)oc2C)CC3)cc1` [Example 292, Methyl 4-[8-(5-tert-butyl-2-methylfuran-3-carbonyl)-2-oxo-1,4,8-triazaspiro[4,5]dec-1-ylmethyl]benzoate]: in assay [2], the inhibition at 1 µM amounted to 40%. The molecule further came in with a BTX inhibition in assay [3] of 40.

With `CCOC(=O)CN1C(=O)C(Cc2ccccc2)NC12CCN(C(=O)C1CC1)CC2` (stereo not drawn) [Example 293, Ethyl (3-benzyl-8-cyclopropanecarbonyl-2-oxo-1,4,8-triazaspiro[4,5]dec-1-yl)acetate], the inhibition at 1 µM in assay [2] worked out at 55%. In addition, the BTX inhibition in assay [3] came to 31. As for `CCOC(=O)CN1C(=O)C(Cc2ccccc2)NC12CCN(C(=O)CC(C)C)CC2` (stereo not drawn) [Example 294, Ethyl [3-benzyl-8-(3-methylbutyryl)-2-oxo-1,4,8-triazaspiro[4,5]dec-1-yl]acetate], the inhibition at 1 µM in assay [2] came to 53%. Besides, the BTX inhibition in assay [3] stood at 33. In the same order, the values of `C=CCN1C(=O)C(C(C)C)NC12CCN(C(=O)Cc1cccc(OC)c1)CC2` (stereo not drawn) [Example 296, 1-Allyl-3-isopropyl-8-[2-(3-methoxyphenyl)acetyl]-1,4,8-triazaspiro[4,5]decan-2-one] are 30% and 36. In the case of `CCCCC(=O)N1CCC2(CC1)NC(Cc1ccccc1)C(=O)N2CC(=O)OCC` (stereo not drawn) [Example 299, Ethyl (3-benzyl-2-oxo-8-pentanoyl-1,4,8-triazaspiro[4,5]dec-1-yl)acetate], the inhibition at 1 µM in assay [2] is 66%. Also, in assay [3], the BTX inhibition stood at 36. In the same order, the values of `COC(=O)c1ccc(CN2C(=O)CNC23CCN(C(=O)c2ccc(C(C)(C)C)cc2)CC3)cc1` [Example 305, Methyl 4-[8-(4-tert-Butylbenzoyl)-2-oxo-1,4,8-triazaspiro[4,5]dec-1-ylmethyl]benzoate] are 37% and 51. The like results for `CCCc1c(C(=O)N2CCC3(CC2)NC(Cc2ccccc2)C(=O)N3CC(=O)OCC)cnn1-c1ccccc1` (stereo not drawn) [Example 306, Ethyl [3-benzyl-2-oxo-8-(1-phenyl-5-propyl-1H-pyrazole-4-carbonyl)-1,4,8-triazaspiro[4,5]dec-1-yl]acetate] were, in that order, 85% and 68.

For the molecule `Cc1cc(C)cc(CN2C(=O)C(CC(C)C)NC23CCN(C(=O)CN(C)C)CC3)c1` (stereo not drawn) [Example 309, 8-(2-Dimethylaminoacetyl)-1-(3,5-dimethylbenzyl)-3-isobutyl-1,4,8-triazaspiro[4,5]decan-2-one], in assay [2], the inhibition at 1 µM was 43%. Moreover, the BTX inhibition in assay [3] came to 82.

With `CCCc1ccc(C(=O)N2CCC3(CC2)NC(CC(C)C)C(=O)N3Cc2c(Cl)cccc2Cl)cc1` (stereo not drawn) [Example 317, 1-(2,6-Dichlorobenzyl)-3-isobutyl-8-(4-propylbenzoyl)-1,4,8-triazaspiro[4,5]decan-2-one], the inhibition at 1 µM in assay [2] turned out to be 33%. The BTX inhibition in assay [3] worked out at 62.

In the case of `C=CCN1C(=O)C(CCSC)NC12CCN(C(=O)c1cnn(-c3ccccc3)c1CCC)CC2` (stereo not drawn) [Example 323, 1-Allyl-3-(2-methylsulfanylethyl)-8-(1-phenyl-5-propyl-1H-pyrazole-4-carbonyl)-1,4,8-triazaspiro[4,5]decan-2-one], the inhibition at 1 µM in assay [2] came to 33%. The BTX inhibition in assay [3] is reported as 43. Take `Cc1ccc(C(=O)N2CCC3(CC2)NC(CC(C)C)C(=O)N3Cc2c(Cl)cccc2Cl)c(F)c1F` (stereo not drawn) [Example 324, 1-(2,6-Dichlorobenzyl)-8-(2,3-difluoro-4-methylbenzoyl)-3-isobutyl-1,4,8-triazaspiro[4,5]decan-2-one]: the inhibition at 1 µM in assay [2] turned out to be 31%. This molecule came in with a BTX inhibition in assay [3] of 62.

In the case of `CCOC(=O)CN1C(=O)C(Cc2ccccc2)NC12CCN(C(=O)COCc1ccccc1)CC2` (stereo not drawn) [Example 329, Ethyl [3-benzyl-8-(2-benzyloxyacetyl)-2-oxo-1,4,8-triazaspiro[4,5]dec-1-yl]acetate], in assay [2], the inhibition at 1 µM turned out to be 55%. The molecule also gave a BTX inhibition in assay [3] of 43.

`C=CCN1C(=O)C(CCSC)NC12CCN(C(=O)c1cc(C(C)(C)C)nn1C)CC2` (stereo not drawn) [Example 330, 1-Allyl-8-(5-tert-butyl-2-methyl-2H-pyrazole-3-carbonyl)-3-(2-methylsulfanylethyl)-1,4,8-triazaspiro[4,5]decan-2-one]: the inhibition at 1 µM in assay [2] was 45%. In addition, the BTX inhibition in assay [3] is given as 31.
